In brackets after ≈: the same amount, converted by molar mass.
Test system: M17-SYNwt cells
Assay: α-synuclein cytotoxicity assay (LDH leakage from paraquat-treated α-synuclein over-expressing neuroblastoma cells)
Format: cell-based, human
Settings: paraquat 32 mM, 40 hours, LDH release; for %I: percent inhibition of synuclein cytotoxicity at most effective concentration of test compound, relative to untreated paraquat cells; for EC50: Homo sapiens, Neuroblastoma cell, 10 point curves in duplicate
Method in brief: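 M17 neuroblastoma cells over-expressing wild-type α-synuclein were challenged with paraquat, and cytotoxicity was read as LDH release. Protection was expressed as percent reduction of paraquat-induced LDH release relative to untreated paraquat cells and control cells. Actives were retested in 10-point duplicate dose responses.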

CC1CN(c2nc(Cc3ccc(F)cc3)ns2)CCN1S(=O)(=O)c1ccc([N+](=O)[O-])cc1 (stereo not drawn) [Compound 73, 1-[4-nitrophenylsulfonyl]-4-[3-(4-fluorobenzyl)-1,2,4-thiadiazol-5-yl]-2-methylpiperazine]
%I: 33%

O=S(=O)(Cc1ccccc1)N1CCN(c2nc(Cc3ccc(Cl)cc3)ns2)CC1 [Compound 76, 1-(benzylsulfonyl)-4-[3-(4-chlorobenzyl)-1,2,4-thiadiazol-5-yl]piperazine]
%I: 40%

Cc1ccc(Cc2nsc(N3CCN(S(=O)(=O)Cc4ccccc4)CC3)n2)cc1 [Compound 77, 1-(benzylsulfonyl)-4-[3-(4-methylbenzyl)-1,2,4-thiadiazol-5-yl]piperazine]
%I: 81%

CCCCS(=O)(=O)N1CCN(c2nc(Cc3ccc(Cl)cc3)ns2)CC1 [Compound 81, 1-(butylsulfonyl)-4-[3-(4-chlorobenzyl)-1,2,4-thiadiazol-5-yl]piperazine]
EC50: 0.35 µg/mL (≈ 0.843 µM) | %I: 80%

CCCCCCCCS(=O)(=O)N1CCN(c2nc(Cc3ccc(C)cc3)ns2)CC1 [Compound 82, 1-(octylsulfonyl)-4-[3-(4-methylbenzyl)-1,2,4-thiadiazol-5-yl]piperazine]
EC50: 1.58 µg/mL (≈ 3.51 µM) | %I: 50%

CCCCS(=O)(=O)N1CCN(c2nc(Cc3ccc(C)cc3)ns2)CC1 [Compound 83, 1-(butylsulfonyl)-4-[3-(4-methylbenzyl)-1,2,4-thiadiazol-5-yl]piperazine]
EC50: 2.64 µg/mL (≈ 6.69 µM) | %I: 36%

CCS(=O)(=O)N1CCN(c2nc(Cc3ccc(Cl)cc3)ns2)CC1 [Compound 84, 1-(ethylsulfonyl)-4-[3-(4-chlorobenzyl)-1,2,4-thiadiazol-5-yl]piperazine]
EC50: 3.48 µg/mL (≈ 8.99 µM) | %I: 53%

Cc1ccc(Cc2nsc(N3CCN(S(=O)(=O)C(C)C)CC3)n2)cc1 [Compound 85, 1-(isopropylsulfonyl)-4-[3-(4-methylbenzyl)-1,2,4-thiadiazol-5-yl]piperazine]
EC50: 3.65 µg/mL (≈ 9.59 µM) | %I: 69%

CC1CN(c2nc(Cc3ccc(Cl)cc3)ns2)CCN1C(=O)/C=C/c1ccccc1 (stereo not drawn) [Compound 86, 1-[(2E)-3-phenylprop-2-enoyl]-4-[3-(4-chlorobenzyl)-1,2,4-thiadiazol-5-yl]-2-methylpiperazine]
EC50: 1.13 µg/mL (≈ 2.57 µM) | %I: 81%

CC1CN(c2nc(Cc3ccc(F)cc3)ns2)CCN1C(=O)/C=C/c1ccccc1 (stereo not drawn) [Compound 87, 1-[(2E)-3-phenylprop-2-enoyl]-4-B103-2-methylpiperazine]
EC50: 2.49 µg/mL (≈ 5.89 µM) | %I: 94%

O=C(/C=C/c1ccccc1)N1CCN(c2nc(Cc3ccc(Cl)cc3)ns2)CC1 [Compound 88, 1-[(2E)-3-phenylprop-2-enoyl]-4-[3-(4-chlorobenzyl)-1,2,4-thiadiazol-5-yl]piperazine]
%I: 72%

CC1CN(c2nc(Cc3ccc(F)cc3)ns2)CCN1C(=O)CCc1ccccc1 (stereo not drawn) [Compound 89, 1-(3-phenylpropanoyl)-4-[3-(4-fluorobenzyl)-1,2,4-thiadiazol-5-yl]-2-methylpiperazine]
EC50: 0.6 µg/mL (≈ 1.41 µM) | %I: 86%

O=C(CCc1ccccc1)N1CCN(c2nc(Cc3ccc(F)cc3)ns2)CC1 [Compound 90, 1-(3-phenylpropanoyl)-4-[3-(4-fluorobenzyl)-1,2,4-thiadiazol-5-yl]piperazine]
EC50: 1.41 µg/mL (≈ 3.43 µM) | %I: 73%

Cc1ccc(Cc2nsc(N3CCN(C/C=C/c4ccccc4)CC3)n2)cc1 [Compound 91, 1-[3-phenylprop-2-enyl]-4-[3-(4-methylbenzyl)-1,2,4-thiadiazol-5-yl]piperazine]
EC50: 0.71 µg/mL (≈ 1.82 µM) | %I: 90%

Clc1ccc(Cc2nsc(N3CCN(C/C=C/c4ccccc4)CC3)n2)cc1 [Compound 92, 1-[3-phenylprop-2-enyl]-4-[3-(4-chlorobenzyl)-1,2,4-thiadiazol-5-yl]piperazine]
EC50: 0.75 µg/mL (≈ 1.82 µM) | %I: 69%

Fc1ccc(Cc2nsc(N3CCN(C/C=C/c4ccccc4)CC3)n2)cc1 [Compound 93, 1-[3-phenylprop-2-enyl]-4-[3-(4-fluorobenzyl)-1,2,4-thiadiazol-5-yl]piperazine]
EC50: 1.99 µg/mL (≈ 5.04 µM) | %I: 91%

CCCCCc1ccc(C(=O)NCCN2CCN(c3nc(Cc4ccc(F)cc4)ns3)CC2)cc1 [Compound 94, 4-pentyl-N-{2-[4-[3-(4-fluorobenzyl)-1,2,4-thiadiazol-5-yl]piperazin-1-yl]ethyl}benzamide]
EC50: 0.35 µg/mL (≈ 0.706 µM) | %I: 90%

CCCCc1ccc(C(=O)NCCN2CCN(c3nc(Cc4ccc(F)cc4)ns3)CC2)cc1 [Compound 95, 4-butyl-N-{2-[4-[3-(4-fluorobenzyl)-1,2,4-thiadiazol-5-yl]piperazin-1-yl]ethyl}benzamide]
EC50: 0.38 µg/mL (≈ 0.789 µM) | %I: 78%

CCCCCCc1ccc(C(=O)NCCN2CCN(c3nc(Cc4ccc(F)cc4)ns3)CC2)cc1 [Compound 96, 4-hexyl-N-{2-[4-[3-(4-fluorobenzyl)-1,2,4-thiadiazol-5-yl]piperazin-1-yl]ethyl}benzamide]
EC50: 0.8 µg/mL (≈ 1.57 µM) | %I: 72%

O=C(NCCN1CCN(c2nc(Cc3ccc(F)cc3)ns2)CC1)c1ccc(Cl)cc1 [Compound 97, 4-chloro-N-{2-[4-[3-(4-fluorobenzyl)-1,2,4-thiadiazol-5-yl]piperazin-1-yl]ethyl}benzamide]
EC50: 1.29 µg/mL (≈ 2.8 µM) | %I: 68%

O=C(NCCN1CCN(c2nc(Cc3ccc(F)cc3)ns2)CC1)c1cc(Cl)cc(Cl)c1 [Compound 98, 3,5-dichloro-N-{2-[4-[3-(4-fluorobenzyl)-1,2,4-thiadiazol-5-yl]piperazin-1-yl]ethyl}benzamide]
EC50: 1.42 µg/mL (≈ 2.87 µM) | %I: 102%

Cc1ccccc1C(=O)NCCN1CCN(c2nc(Cc3ccc(F)cc3)ns2)CC1 [Compound 99, 2-methyl-N-{2-[4-[3-(4-fluorobenzyl)-1,2,4-thiadiazol-5-yl]piperazin-1-yl]ethyl}benzamide]
EC50: 1.58 µg/mL (≈ 3.59 µM) | %I: 97%

O=C(NCCN1CCN(c2nc(Cc3ccc(Cl)cc3)ns2)CC1)c1cccc(F)c1 [Compound 100, 3-fluoro-N-(2-[4-[3-(4-chlorobenzyl)-1,2,4-thiadiazof-5-yl]piperazin-1-yl]ethyl)benzamide]
EC50: 1.79 µg/mL (≈ 3.89 µM) | %I: 75%

Cc1ccc(C(=O)NCCN2CCN(c3nc(Cc4ccc(F)cc4)ns3)CC2)cc1 [Compound 101, 4-methyl-N-{2-[4-[3-(4-fluorobenzyl)-1,2,4-thiadiazol-5-yl]piperazin-1-yl]ethyl}benzamide]
EC50: 1.94 µg/mL (≈ 4.41 µM) | %I: 68%

O=C(NCCN1CCN(c2nc(Cc3ccc(F)cc3)ns2)CC1)c1ccc(F)cc1 [Compound 102, 4-fluoro-N-{2-[4-[3-(4-fluorobenzyl)-1,2,4-thiadiazol-5-yl]piperazin-1-yl]ethyl}benzamide]
EC50: 1.99 µg/mL (≈ 4.49 µM) | %I: 80%

CCc1ccc(C(=O)NCCN2CCN(c3nc(Cc4ccc(F)cc4)ns3)CC2)cc1 [Compound 103, 4-ethyl-N-{2-[4-[3-(4-fluorobenzyl)-1,2,4-thiadiazol-5-yl]piperazin-1-yl]ethyl}benzamide]
EC50: 2.32 µg/mL (≈ 5.11 µM) | %I: 139%

O=C(NCCN1CCN(c2nc(Cc3ccc(F)cc3)ns2)CC1)c1ccccc1 [Compound 104, N-{2-[4-[3-(4-fluorobenzyl)-1,2,4-thiadiazol-5-yl]piperazin-1-yl]ethyl}benzamide]
EC50: 3.82 µg/mL (≈ 8.98 µM) | %I: 65%

O=C(NCCN1CCN(c2nc(Cc3ccc(F)cc3)ns2)CC1)c1cccc(F)c1 [Compound 105, 3-fluoro-N-{2-[4-[3-(4-fluorobenzyl)-1,2,4-thiadiazol-5-yl]piperazin-1-yl]ethyl}benzamide]
%I: 115%

O=C(NCCN1CCN(c2nc(Cc3ccccc3)ns2)CC1)c1cccc(F)c1 [Compound 106, 3-fluoro-N-{2-[4-[3-benzyl-1,2,4-thiadiazol-5-yl]piperazin-1-yl]ethyl}benzamide]
%I: 49%

O=C(Cc1ccc(F)cc1)NCCN1CCN(c2nc(Cc3ccc(F)cc3)ns2)CC1 [Compound 107, 2-(4-fluorophenyl)-N-{2-[4-[3-(4-fluorobenzyl)-1,2,4-thiadiazol-5-yl]piperazin-1-yl]ethyl}acetamide]
EC50: 0.26 µg/mL (≈ 0.568 µM) | %I: 80%

O=C(Cc1ccccc1)NCCN1CCN(c2nc(Cc3ccc(F)cc3)ns2)CC1 [Compound 108, 2-phenyl-N-{2-[4-[3-(4-fluorobenzyl)-1,2,4-thiadiazol-5-yl]piperazin-1-yl]ethyl}acetamide]
EC50: 2.06 µg/mL (≈ 4.69 µM) | %I: 63%

Cc1ccc(Cc2nsc(N3CCN(CCNC(=O)Cc4ccc(F)cc4)CC3)n2)cc1 [Compound 109, 2-(4-fluorophenyl)-N-{2-[4-[3-(4-methylbenzyl)-1,2,4-thiadiazol-5-yl]piperazin-1-yl]ethyl}acetamide]
EC50: 3.52 µg/mL (≈ 7.76 µM) | %I: 93%

O=C(NCCN1CCN(c2nc(Cc3ccc(F)cc3)ns2)CC1)NCc1ccccc1 [Compound 110, N-benzyl-N'-{2-[4-[3-(4-fluorobenzyl)-1,2,4-thiadiazol-5-yl]piperazin-1-yl]ethyl}urea]
%I: 77%

Fc1ccc(Cc2nsc(N3CCN(Cc4ccccc4)CC3)n2)cc1 [Compound 113, 1-benzyl-4-[3-(4-fluorobenzyl)-1,2,4-thiadiazol-5-yl]piperazine]
EC50: 1.54 µg/mL (≈ 4.18 µM) | %I: 65%

Fc1ccc(Cc2nsc(N3CCN(Cc4ccc5c(c4)OCO5)CC3)n2)cc1 [Compound 114, 1-(1,3-benzodioxol-5-ylmethyl)-4-[3-(4-fluorobenzyl)-1,2,4-thiadiazol-5-yl]piperazine]
%I: 86%

COc1cccc(Cc2nsc(N3CCN(C(=O)c4ccccc4F)C(C)C3)n2)c1 (stereo not drawn) [Compound 115, 1-(2-fluorobenzoyl)-4-[3-(3-methoxybenzyl)-1,2,4-thiadiazol-5-yl]-2-methylpiperazine]
EC50: 0.0361 µg/mL (≈ 0.0846 µM) | %I: 75%

CCc1ccc(C(=O)N2CCN(c3nc(Cc4ccc(F)cc4)ns3)CC2C)cc1 (stereo not drawn) [Compound 116, 1-(4-ethylbenzoyl)-4-[3-(4-fluorobenzyl)-1,2,4-thiadiazol-5-yl]-2-methylpiperazine]
EC50: 0.0522 µg/mL (≈ 0.123 µM) | %I: 71%
